This assay has as its target T1, human RXFP1 (Homo sapiens, UniProt Q9HBX9).
T1 construct: expressed in transfected cells
T1 sequence (Q9HBX9 1-757): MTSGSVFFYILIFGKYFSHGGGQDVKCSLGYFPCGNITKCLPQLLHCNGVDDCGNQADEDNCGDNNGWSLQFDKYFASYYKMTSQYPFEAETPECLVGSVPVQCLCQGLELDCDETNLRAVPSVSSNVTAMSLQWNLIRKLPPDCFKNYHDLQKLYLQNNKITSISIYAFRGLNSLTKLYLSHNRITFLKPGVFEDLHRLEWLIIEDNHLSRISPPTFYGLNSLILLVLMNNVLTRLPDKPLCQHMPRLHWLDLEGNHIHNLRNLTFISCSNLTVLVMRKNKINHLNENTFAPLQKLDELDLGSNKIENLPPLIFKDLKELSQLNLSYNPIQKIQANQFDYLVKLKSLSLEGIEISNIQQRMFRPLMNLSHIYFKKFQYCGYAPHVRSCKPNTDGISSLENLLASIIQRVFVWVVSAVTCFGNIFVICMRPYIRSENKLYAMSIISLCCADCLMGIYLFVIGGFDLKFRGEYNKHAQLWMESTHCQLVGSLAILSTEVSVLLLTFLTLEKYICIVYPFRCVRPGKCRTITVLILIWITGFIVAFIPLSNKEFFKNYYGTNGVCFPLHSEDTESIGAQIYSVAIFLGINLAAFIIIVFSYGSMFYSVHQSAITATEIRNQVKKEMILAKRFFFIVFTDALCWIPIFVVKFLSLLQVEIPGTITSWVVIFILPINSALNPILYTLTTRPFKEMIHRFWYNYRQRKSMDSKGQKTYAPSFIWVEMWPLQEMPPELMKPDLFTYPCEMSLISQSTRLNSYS
As to the kind of experiment: hRXFP1 HEK293 cAMP assay (HTRF). The assay is classed as cell-based. Conditions: HEK293 cells stably expressing human RXFP1; 30 min at rt; intracellular cAMP by HTRF. In outline:
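Agonism is measured as cAMP by HTRF, quantified from a standard curve via the 665/590 nm ratio and fitted with a four-parameter logistic equation. Compounds (0.010 nM to 50 μM final, 2% DMSO) were applied for 30 min at rt to human RXFP1-expressing HEK293 cells in assay buffer containing 0.5 mM IBMX.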
Regarding `COc1ccc(C2CC2C(=O)NC2CCOCC2)cc1C(=O)Nc1c(C(=O)Nc2ccc(F)c(C(F)(F)F)c2)sc2cc(C(F)(F)F)ccc12` (single isomer, unassigned) [Example 157, N-[4-fluoro-3-(trifluoromethyl)phenyl]-3-(2-methoxy-5-{2-[(oxan-4-yl)carbamoyl]cyclopropyl}benzamido)-6-(trifluoromethyl)-1-benzothiophene-2-carboxamide], the response was half-maximal at 1.04 µM (EC50).

For the compound `COc1ccc(C2CCCN(C(=O)OC(C)(C)C)C2)cc1C(=O)Nc1c(C(=O)Nc2ccc(F)c(C(F)(F)F)c2)sc2cc(C(F)(F)F)ccc12` (stereo not shown) [Example 79, tert-butyl 3-(3-((2-((4-fluoro-3-(trifluoromethyl)phenyl)carbamoyl)-6-(trifluoromethyl)benzo[b]thiophen-3-yl)carbamoyl)-4-methoxyphenyl) piperidine-1-carboxylate], the EC50 stood at 0.39 µM.

With `COc1ccc(CNC(C)(C)CO)cc1C(=O)Nc1c(C(=O)Nc2ccc(F)c(C(F)(F)F)c2)sc2cc(C(F)(F)F)ccc12` [Example 235, N-(4-fluoro-3-(trifluoromethyl)phenyl)-3-(5-(((1-hydroxy-2-methylpropan-2-yl)amino)methyl)-2-methoxy-benzamido)-6-(trifluoromethyl) benzo[b] thiophene-2-carboxamide], it took 1.5 µM to reach a half-maximal effect (EC50).

In turn, `COc1ccc(C2CCCN(C3COC3)C2)cc1C(=O)Nc1c(C(=O)Nc2ccc(F)c(C(F)(F)F)c2)sc2cc(C(F)(F)F)ccc12` (stereo not shown) [Example 97, N-(4-fluoro-3-(trifluoromethyl)phenyl)-3-(2-methoxy-5-(1-(oxetan-3-yl)piperidin-3-yl)benzamido)-6-(trifluoromethyl) benzo[b] thiophene-2-carboxamide] came in with an EC50 of 0.607 µM.

For `COc1ccc(C2CCCN(C(=O)CN(C)C)C2)cc1C(=O)Nc1c(C(=O)Nc2ccc(F)c(C(F)(F)F)c2)sc2cc(C(F)(F)F)ccc12` (stereo not shown) [Example 95, 3-(5-(1-(dimethylglycyl)piperidin-3-yl)-2-methoxy-benzamido)-N-(4-fluoro-3-(trifluoromethyl)phenyl)-6-(trifluoromethyl) benzo[b] thiophene-2-carboxamide], the EC50 stood at 0.87 µM.

The compound `COc1ccc(C2CCCN(CC(O)CO)C2)cc1C(=O)Nc1c(C(=O)Nc2ccc(F)c(C(F)(F)F)c2)sc2cc(C(F)(F)F)ccc12` (stereo not shown) [Example 102, 3-(5-(1-(2,3-dihydroxypropyl)piperidin-3-yl)-2-methoxy-benzamido)-N-(4-fluoro-3-(trifluoromethyl)phenyl)-6-(trifluoromethyl) benzo[b] thiophene-2-carboxamide] showed an EC50 of 2.23 µM.

The compound `COc1ccc(C2CCN(C(=O)C(C)(C)O)C2)cc1C(=O)Nc1c(C(=O)Nc2ccc(F)c(C(F)(F)F)c2)sc2cc(C(F)(F)F)ccc12` (stereo not shown) [Example 140, N-(4-fluoro-3-(trifluoromethyl)phenyl)-3-(5-(1-(2-hydroxy-2-methylpropanoyl)pyrrolidin-3-yl)-2-methoxy-benzamido)-6-(trifluoromethyl) benzo[b] thiophene-2-carboxamide] came in with an EC50 of 0.0979 µM.

The compound `COc1ccc(C(=O)NCCS(C)(=O)=O)cc1C(=O)Nc1c(C(=O)Nc2ccc(F)c(C(F)(F)F)c2)sc2cc(Cl)ncc12` [Example 197, N3-(6-chloro-2-((4-fluoro-3-(trifluoromethyl)phenyl)carbamoyl)thieno[3,2-c]pyridin-3-yl)-4-methoxy-N1-(2-(methylsulfonyl)ethyl) isophthalamide] showed an EC50 of 0.45 µM.

Compound `COc1ccc(C2CCCN(CC(C)C)C2)cc1C(=O)Nc1c(C(=O)Nc2ccc(F)c(C(F)(F)F)c2)sc2cc(C(F)(F)F)ccc12` (stereo not shown) [Example 89, N-(4-fluoro-3-(trifluoromethyl)phenyl)-3-(5-(1-isobutylpiperidin-3-yl)-2-methoxy-benzamido)-6-(trifluoromethyl) benzo[b] thiophene-2-carboxamide] registered an EC50 of 2.18 µM.

`COc1ccc(C2CCCN(C(C)C)CC2)cc1C(=O)Nc1c(C(=O)Nc2ccc(F)c(C(F)(F)F)c2)sc2cc(C(F)(F)F)ccc12` (stereo not shown) [Example 213, N-(4-fluoro-3-(trifluoromethyl)phenyl)-3-(5-(1-isopropylazepan-4-yl)-2-methoxy-benzamido)-6-(trifluoromethyl) benzo[b] thiophene-2-carboxamide]: the EC50 was determined as 3.36 µM.

The compound `COc1cc(F)c(C(=O)N2CC[C@@H](O)C2)cc1C(=O)Nc1c(C(=O)Nc2ccc(F)c(C(F)(F)F)c2)sc2cc(C(F)(F)F)ccc12` [Example 183, (R)-N-(4-fluoro-3-(trifluoromethyl)phenyl)-3-(4-fluoro-5-(3-hydroxy-pyrrolidine-1-carbonyl)-2-methoxy-benzamido)-6-(trifluoromethyl) benzo[b] thiophene-2-carboxamide] registered an EC50 of 0.823 µM.

Compound `COc1cc(C)c(C(=O)N2CC3(C2)CS(=O)(=O)C3)cc1C(=O)Nc1c(C(=O)Nc2ccc(F)c(C(F)(F)F)c2)sc2cc(C(F)(F)F)ccc12` [Example 226, 3-(5-(2,2-dioxido-2-thia-6-azaspiro[3.3]heptane-6-carbonyl)-2-methoxy-4-methylbenzamido)-N-(4-fluoro-3-(trifluoromethyl)phenyl)-6-(trifluoromethyl) benzo[b] thiophene-2-carboxamide] yielded an EC50 of 1.76 µM.

In the case of `COc1ccc(-c2cc([C@H](OC(=O)NC3CCC3)C(F)(F)F)ccc2F)cc1C(=O)Nc1c(C(=O)Nc2ccc(F)c(C(F)(F)F)c2)sc2cc(C(F)(F)F)ccc12` [Example 22, (S)-2,2,2-trifluoro-1-(6-fluoro-3′-((2-((4-fluoro-3-(trifluoromethyl)phenyl)carbamoyl)-6-(trifluoromethyl)benzo[b]thiophen-3-yl)carbamoyl)-4′-methoxy-[1, 1′-biphenyl]-3-yl) ethyl cyclobutylcarbamate], the EC50 stood at 0.0005 µM.

For the compound `COc1ccc(N2CCC(NCCS(C)(=O)=O)C2)cc1C(=O)Nc1c(C(=O)Nc2ccc(F)c(C(F)(F)F)c2)sc2cc(C(F)(F)F)ccc12` (stereo not shown) [Example 67, N-(4-fluoro-3-(trifluoromethyl)phenyl)-3-(2-methoxy-5-(3-((2-(methylsulfonyl)ethyl)amino)pyrrolidin-1-yl)benzamido)-6-(trifluoromethyl) benzo[b] thiophene-2-carboxamide], a half-maximal effect (EC50) was put at 1.29 µM.

In turn, `COc1ccc(C2CCN(C(=O)C3(O)CC3)C2)cc1C(=O)Nc1c(C(=O)Nc2ccc(F)c(C(F)(F)F)c2)sc2cc(C(F)(F)F)ccc12` (stereo not shown) [Example 138, N-(4-fluoro-3-(trifluoromethyl)phenyl)-3-(5-(1-(1-hydroxycyclo-propane-1-carbonyl)pyrrolidin-3-yl)-2-methoxy-benzamido)-6-(trifluoromethyl) benzo[b] thiophene-2-carboxamide] had an EC50 of 0.213 µM.

`COc1ccc(C2CCC(C)(O)CC2)cc1C(=O)Nc1c(C(=O)Nc2ccc(F)c(C(F)(F)F)c2)sc2cc(C(F)(F)F)ccc12` (single isomer, unassigned) [Example 38, N-(4-fluoro-3-(trifluoromethyl)phenyl)-3-(5-(4-hydroxy-4-methylcyclohexyl)-2-methoxybenzamido)-6-(trifluoromethyl)benzo[b]thiophene-2-carboxamide] came in with an EC50 of 0.194 µM.

In the case of `COc1ccc(C(=O)N2CCC[C@@H](O)C2)cc1C(=O)Nc1c(C(=O)Nc2ccc(F)c(C(F)(F)F)c2)sc2cc(C(F)(F)F)ccc12` [Example 219, (R)-N-(4-fluoro-3-(trifluoromethyl)phenyl)-3-(5-(3-hydroxy-piperidine-1-carbonyl)-2-methoxy-benzamido)-6-(trifluoromethyl) benzo[b] thiophene-2-carboxamide], the EC50 was 1.14 µM.

`COc1ccc(C2CCCC(NC3COC3)C2)cc1C(=O)Nc1c(C(=O)Nc2ccc(F)c(C(F)(F)F)c2)sc2cc(C(F)(F)F)ccc12` (single isomer, unassigned) [Example 61, N-(4-fluoro-3-(trifluoromethyl)phenyl)-3-(2-methoxy-5-(3-(oxetan-3-ylamino)cyclohexyl)benzamido)-6-(trifluoromethyl) benzo[b] thiophene-2-carboxamide]: the midpoint of the response, the EC50, lay at 0.599 µM.

For `COc1ccc(C2=NOC3(CCN(C(=O)C(C)(C)CO)CC3)C2)cc1C(=O)Nc1c(C(=O)Nc2ccc(F)c(C(F)(F)F)c2)sc2cc(C(F)(F)F)ccc12` [Example 269, N-(4-fluoro-3-(trifluoromethyl)phenyl)-3-(5-(8-(3-hydroxy-2,2-dimethyl-propanoyl)-1-oxa-2,8-diazaspiro[4.5]dec-2-en-3-yl)-2-methoxy-benzamido)-6-(trifluoromethyl) benzo[b] thiophene-2-carboxamide], the EC50 is 0.737 µM.

One may read the EC50 as the concentration giving half of the maximal effect. Read a low EC50 as a more potent agent.

Source of the values: patent US20260265233A1, “BENZOTHIOPHENE DERIVATIVES AS RXFP1 AGONISTS” (BRISTOL-MYERS SQUIBB COMPANY, priority 2021, published 2026).
